Results: ChEMBL document CHEMBL5352403, “Monoamine oxidase inhibitors: A concise review with special emphasis on structure activity relationship studies” (Eur J Med Chem, 2022)
Values belong to the compound of their own block, whether it stands above or below them.

How the values were obtained:
[1] = target: T1, Amine oxidase [flavin-containing] A (Homo sapiens, UniProt P21397); test: Inhibition of recombinant human MAO-A using p-tyramine as substrate incubated for 45 mins by Amplex Red reagent and horseradish peroxidase based fluorescence microplate reader analysis
T1 sequence (P21397 whole entry): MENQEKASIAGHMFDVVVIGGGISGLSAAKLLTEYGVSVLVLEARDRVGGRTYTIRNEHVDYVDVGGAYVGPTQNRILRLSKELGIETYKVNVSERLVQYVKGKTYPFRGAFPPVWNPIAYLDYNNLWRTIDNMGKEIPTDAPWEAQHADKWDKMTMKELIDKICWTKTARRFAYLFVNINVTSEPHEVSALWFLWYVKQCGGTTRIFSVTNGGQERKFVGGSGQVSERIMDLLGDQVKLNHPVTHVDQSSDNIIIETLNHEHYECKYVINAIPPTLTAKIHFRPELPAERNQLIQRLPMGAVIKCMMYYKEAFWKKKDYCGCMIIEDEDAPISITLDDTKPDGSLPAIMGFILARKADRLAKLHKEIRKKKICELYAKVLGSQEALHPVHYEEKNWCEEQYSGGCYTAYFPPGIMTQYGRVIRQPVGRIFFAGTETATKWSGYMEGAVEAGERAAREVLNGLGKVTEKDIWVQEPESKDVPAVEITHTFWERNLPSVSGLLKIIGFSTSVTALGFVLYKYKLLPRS

[2] = target: T2, Amine oxidase [flavin-containing] B (Homo sapiens, UniProt P27338); test: Inhibition of recombinant human MAO-B using kynuramine as substrate incubated for 30 mins by fluorimetric analysis
T2 sequence (P27338 whole entry): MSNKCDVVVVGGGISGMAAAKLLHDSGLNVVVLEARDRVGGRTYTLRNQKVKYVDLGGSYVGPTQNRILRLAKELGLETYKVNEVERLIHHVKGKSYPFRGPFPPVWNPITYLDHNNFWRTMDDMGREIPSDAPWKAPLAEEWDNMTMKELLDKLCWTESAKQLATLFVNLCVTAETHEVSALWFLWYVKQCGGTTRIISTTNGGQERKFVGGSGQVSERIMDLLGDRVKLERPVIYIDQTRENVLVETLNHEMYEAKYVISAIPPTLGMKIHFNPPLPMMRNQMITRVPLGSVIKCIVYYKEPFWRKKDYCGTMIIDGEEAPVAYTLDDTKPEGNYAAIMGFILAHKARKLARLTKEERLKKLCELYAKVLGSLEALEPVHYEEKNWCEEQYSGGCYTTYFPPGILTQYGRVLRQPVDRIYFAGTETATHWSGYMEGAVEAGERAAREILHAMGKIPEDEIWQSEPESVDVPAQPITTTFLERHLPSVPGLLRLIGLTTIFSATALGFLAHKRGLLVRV

[3] = target: T2, Amine oxidase [flavin-containing] B; test: Reversible inhibition of recombinant human MAO-B assessed as inhibition constant incubated for 30 mins by dilution assay
[4] = target: T1, Amine oxidase [flavin-containing] A; test: Inhibition of recombinant human MAO-A using kynuramine as substrate incubated for 30 mins by fluorimetric analysis
[5] = target: T1, Amine oxidase [flavin-containing] A; test: Inhibition of recombinant human MAO-A expressed in baculovirus infected BTI-TN-5B1-4 insect cells using p-tyramine as substrate incubated for 15 mins by Amplex Red reagent and horseradish peroxidase based fluorometric analysis

- IC50 [1]: 120 nM
SMILES: CC(C)(C)c1ccc(S(=O)(=O)N2CCN(C(c3ccccc3)c3ccccc3)CC2)cc1

- IC50 [2]: 2950 nM
- Ki [3]: 4 nM
- IC50 [4]: 17000 nM
SMILES: O=C(/C=C/C=C/c1ccccc1)c1ccco1

- IC50 [5]: 168 nM
SMILES: O=[N+]([O-])c1cccc2cc(-c3ccccc3)oc12
